Results published in patent US12703729B2, “GIP agonist compounds and methods” (Zealand Pharma A/S, priority 2014, dated 2026).
Starred links: 1 amine or outer side, 2 acyl side, 3 side chain; linkers in the order of their positions; H or OH if unused. Non-standard residues stand in square brackets, D forms with d. Residues, ends and D or L forms follow the SMILES beside them. Groups on a side chain read outwards from the residue. *: point of attachment. C20 diacid = O=C(O)CCCCCCCCCCCCCCCCCCC(=O)*; γGlu = O=C(O)[C@H](CCC(=O)[*:2])N[*:1]; AEEA = NCCOCCOCC(=O)O; Aib = CC(C)(N)C(=O)O

Assays:
[1] = biological target: T1, human GIP receptor (GIP R) (Homo sapiens, UniProt P48546); assay: Activity assay at human GIP receptor, cAMP induction (AlphaScreen), Example 3
T1 sequence (P48546 22-466): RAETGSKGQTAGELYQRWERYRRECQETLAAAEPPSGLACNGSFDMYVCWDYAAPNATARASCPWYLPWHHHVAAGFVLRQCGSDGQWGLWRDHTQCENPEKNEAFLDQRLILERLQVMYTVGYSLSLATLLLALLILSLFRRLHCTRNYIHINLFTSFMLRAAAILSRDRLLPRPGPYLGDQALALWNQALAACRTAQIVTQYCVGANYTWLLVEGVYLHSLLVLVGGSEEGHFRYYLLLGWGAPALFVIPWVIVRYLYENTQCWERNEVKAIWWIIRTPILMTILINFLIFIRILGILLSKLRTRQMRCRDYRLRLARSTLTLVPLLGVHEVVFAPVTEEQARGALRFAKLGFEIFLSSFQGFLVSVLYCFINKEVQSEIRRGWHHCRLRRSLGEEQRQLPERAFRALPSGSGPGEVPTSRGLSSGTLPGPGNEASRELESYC

[2] = biological target: T2, human GIP R (Homo sapiens, UniProt P48546); assay: cell-based
T2 sequence (P48546 22-466): T1 sequence (P48546 22-466)

[3] = biological target: human GLP-1 receptor (GLP-1R) (Homo sapiens, UniProt P43220); assay: Activity assay at human GLP-1 receptor, cAMP induction (AlphaScreen), Example 3
human GLP-1 receptor (GLP-1R), sequence (P43220 24-463): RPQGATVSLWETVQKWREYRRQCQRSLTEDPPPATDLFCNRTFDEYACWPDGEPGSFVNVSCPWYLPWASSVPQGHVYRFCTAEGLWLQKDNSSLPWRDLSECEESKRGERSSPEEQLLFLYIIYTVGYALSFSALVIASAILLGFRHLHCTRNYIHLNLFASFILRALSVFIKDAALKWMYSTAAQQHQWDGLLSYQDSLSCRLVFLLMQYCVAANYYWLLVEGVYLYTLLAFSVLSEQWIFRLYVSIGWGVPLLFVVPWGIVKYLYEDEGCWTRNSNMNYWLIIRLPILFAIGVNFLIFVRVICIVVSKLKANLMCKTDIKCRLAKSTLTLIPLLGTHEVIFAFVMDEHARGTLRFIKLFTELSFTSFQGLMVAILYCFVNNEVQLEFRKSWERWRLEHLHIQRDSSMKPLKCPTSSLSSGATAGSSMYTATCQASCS

[4] = in vivo; conditions: male, C57BL/6J, mouse; for bioavailability: Bioavailability s.c.; for half-life: 200 nmol/kg
[5] = iv, Terminal elimination half-life T½ i.v.
[6] = sc, Terminal elimination half-life T½ s.c.

SMILES	EC50 [1] [pM]	EC50 [2] [nM]	EC50 [3] [nM]	bioavailability [4] [%]	half-life [4, 5] [min]	Tmax ([4]; sc) [h]	half-life [4, 6] [min]	bioavailability ([4]; sc, repeated test) [%]
CC[C@H](C)[C@H](NC(=O)[C@H](Cc1ccccc1)NC(=O)[C@H](C)NC(=O)[C@H](CCC(N)=O)NC(=O)[C@H](C)NC(=O)[C@H](C)NC(=O)[C@H](CCCCNC(=O)COCCOCCNC(=O)COCCOCCNC(=O)CN1CCN(C(=O)CCCCCCCCCCCCCCCCCCC(=O)O)CC1)NC(=O)[C@H](CCCCN)NC(=O)[C@H](CC(=O)O)NC(=O)[C@H](CC(C)C)NC(=O)[C@H](CCC(=O)O)NC(=O)[C@@H](NC(=O)[C@H](CO)NC(=O)[C@H](Cc1ccc(O)cc1)NC(=O)[C@H](CC(=O)O)NC(=O)[C@H](CO)NC(=O)[C@@H](NC(=O)[C@H](Cc1ccccc1)NC(=O)[C@@H](NC(=O)CNC(=O)[C@H](CCC(=O)O)NC(=O)C(C)(C)NC(=O)[C@@H](N)Cc1ccc(O)cc1)[C@@H](C)O)[C@@H](C)CC)[C@@H](C)CC)C(=O)N[C@@H](CCC(=O)O)C(=O)N[C@@H](Cc1c[nH]c2ccccc12)C(=O)N[C@@H](CC(C)C)C(=O)N[C@@H](CC(C)C)C(=O)N[C@@H](C)C(=O)N[C@@H](CCC(N)=O)C(=O)NCC(=O)N1CCC[C@H]1C(=O)N[C@@H](CO)C(=O)N[C@@H](CO)C(=O)NCC(=O)N[C@@H](C)C(=O)N1CCC[C@H]1C(=O)N1CCC[C@H]1C(=O)N1CCC[C@H]1C(=O)N[C@@H](CO)C(N)=O [Compound 41]	10	0.014	> 10	70	1060	8	990	
CC[C@H](C)[C@H](NC(=O)[C@H](CO)NC(=O)[C@H](Cc1ccc(O)cc1)NC(=O)[C@H](CC(=O)O)NC(=O)[C@H](CO)NC(=O)[C@@H](NC(=O)[C@H](Cc1ccccc1)NC(=O)[C@@H](NC(=O)CNC(=O)[C@H](CCC(=O)O)NC(=O)C(C)(C)NC(=O)[C@@H](N)Cc1ccc(O)cc1)[C@@H](C)O)[C@@H](C)CC)C(=O)N[C@@H](CCC(=O)O)C(=O)N[C@@H](CC(C)C)C(=O)N[C@@H](CC(=O)O)C(=O)N[C@@H](CCCCN)C(=O)N[C@@H](CCCCNC(=O)COCCOCCNC(=O)COCCOCCNC(=O)CC[C@H](NC(=O)CCCCCCCCCCCCCCCCCCC(=O)O)C(=O)O)C(=O)N[C@@H](C)C(=O)N[C@@H](C)C(=O)N[C@@H](CCC(N)=O)C(=O)N[C@@H](CC(=O)O)C(=O)N[C@@H](Cc1ccccc1)C(=O)N[C@H](C(=O)N[C@@H](CC(N)=O)C(=O)N[C@@H](Cc1c[nH]c2ccccc12)C(=O)N[C@@H](CC(C)C)C(=O)N[C@@H](CC(C)C)C(=O)N[C@@H](C)C(=O)NCC(=O)N1CCC[C@H]1C(=O)N[C@@H](CO)C(=O)N[C@@H](CO)C(=O)NCC(=O)N[C@@H](C)C(=O)N1CCC[C@H]1C(=O)N1CCC[C@H]1C(=O)N1CCC[C@H]1C(=O)N[C@@H](CO)C(N)=O)C(C)C [Compound 15] (H-Y[Aib]EGTFISDYSIELDKK([AEEA-AEEA-γGlu-C20 diacid])AAQDFVNWLLAGPSSGAPPPS-NH2)	24	0.012	> 100	87	1150	8	1000	
CC[C@H](C)[C@H](NC(=O)[C@H](CCCCN)NC(=O)[C@H](CCC(=O)O)NC(=O)[C@H](CC(C)C)NC(=O)[C@H](CCC(=O)O)NC(=O)[C@@H](NC(=O)[C@H](CO)NC(=O)[C@H](Cc1ccc(O)cc1)NC(=O)[C@H](CC(=O)O)NC(=O)[C@H](CO)NC(=O)[C@@H](NC(=O)[C@H](Cc1ccccc1)NC(=O)[C@@H](NC(=O)CNC(=O)[C@H](CCC(=O)O)NC(=O)C(C)(C)NC(=O)[C@@H](N)Cc1ccc(O)cc1)[C@@H](C)O)[C@@H](C)CC)[C@@H](C)CC)C(=O)N[C@@H](C)C(=O)N[C@@H](CCC(N)=O)C(=O)N[C@@H](CCCNC(=N)N)C(=O)N[C@@H](C)C(=O)N[C@@H](Cc1ccccc1)C(=O)N[C@H](C(=O)N[C@@H](CCC(=O)O)C(=O)N[C@@H](Cc1c[nH]c2ccccc12)C(=O)N[C@@H](CC(C)C)C(=O)N[C@@H](CC(C)C)C(=O)N[C@@H](C)C(=O)N[C@@H](CCC(N)=O)C(=O)NCC(=O)N1CCC[C@H]1C(=O)N[C@@H](CO)C(=O)N[C@@H](CO)C(=O)NCC(=O)N[C@@H](C)C(=O)N1CCC[C@H]1C(=O)N1CCC[C@H]1C(=O)N1CCC[C@H]1C(=O)N[C@@H](CO)C(=O)N[C@@H](CCCCNC(=O)COCCOCCNC(=O)COCCOCCNC(=O)CC[C@H](NC(=O)CCCCCCCCCCCCCCCCCCC(=O)O)C(=O)O)C(N)=O)C(C)C [Compound 13] (H-Y[Aib]EGTFISDYSIELEKIAQRAFVEWLLAQGPSSGAPPPSK([AEEA-AEEA-γGlu-C20 diacid])-NH2)	8	0.014	> 10	75	864	8	822	
CC[C@H](C)[C@H](NC(=O)[C@H](Cc1ccccc1)NC(=O)[C@H](C)NC(=O)[C@H](CCCNC(=N)N)NC(=O)[C@H](CCC(N)=O)NC(=O)[C@H](C)NC(=O)[C@H](CCCCNC(=O)COCCOCCNC(=O)COCCOCCNC(=O)CC[C@H](NC(=O)CCCCCCCCCCCCCCCCCCC(=O)O)C(=O)O)NC(=O)[C@H](CCCCN)NC(=O)[C@H](CC(=O)O)NC(=O)[C@H](CC(C)C)NC(=O)[C@H](CCC(=O)O)NC(=O)[C@@H](NC(=O)[C@H](CO)NC(=O)[C@H](Cc1ccc(O)cc1)NC(=O)[C@H](CC(=O)O)NC(=O)[C@H](CO)NC(=O)[C@@H](NC(=O)[C@H](Cc1ccccc1)NC(=O)[C@@H](NC(=O)CNC(=O)[C@H](CCC(=O)O)NC(=O)C(C)(C)NC(=O)[C@@H](N)Cc1ccc(O)cc1)[C@@H](C)O)[C@@H](C)CC)[C@@H](C)CC)C(=O)N[C@@H](CCC(=O)O)C(=O)N[C@@H](Cc1c[nH]c2ccccc12)C(=O)N[C@@H](CC(C)C)C(=O)N[C@@H](CC(C)C)C(=O)N[C@@H](C)C(=O)N[C@@H](CCC(N)=O)C(=O)NCC(=O)N1CCC[C@H]1C(=O)N[C@@H](CO)C(=O)N[C@@H](CO)C(=O)NCC(=O)N[C@@H](C)C(=O)N1CCC[C@H]1C(=O)N1CCC[C@H]1C(=O)N1CCC[C@H]1C(=O)N[C@@H](CO)C(N)=O [Compound 18] (H-Y[Aib]EGTFISDYSIELDKK([AEEA-AEEA-γGlu-C20 diacid])AQRAFIEWLLAQGPSSGAPPPS-NH2)	7	0.006	> 3	78	1060	4	906	
CC[C@H](C)[C@H](NC(=O)[C@H](CO)NC(=O)[C@H](Cc1ccc(O)cc1)NC(=O)[C@H](CC(=O)O)NC(=O)[C@H](CO)NC(=O)[C@@H](NC(=O)[C@H](Cc1ccccc1)NC(=O)[C@@H](NC(=O)CNC(=O)[C@H](CCC(=O)O)NC(=O)C(C)(C)NC(=O)[C@@H](N)Cc1ccc(O)cc1)[C@@H](C)O)[C@@H](C)CC)C(=O)N[C@@H](CCC(=O)O)C(=O)N[C@@H](CC(C)C)C(=O)N[C@@H](CCC(=O)O)C(=O)N[C@@H](CCCCN)C(=O)N[C@@H](CCCCNC(=O)COCCOCCNC(=O)COCCOCCNC(=O)CC[C@H](NC(=O)CCCCCCCCCCCCCCCCCCC(=O)O)C(=O)O)C(=O)N[C@@H](C)C(=O)N[C@@H](CCC(N)=O)C(=O)N[C@@H](CCCNC(=N)N)C(=O)N[C@@H](C)C(=O)N[C@@H](Cc1ccccc1)C(=O)N[C@H](C(=O)N[C@@H](CCC(=O)O)C(=O)N[C@@H](Cc1c[nH]c2ccccc12)C(=O)N[C@@H](CC(C)C)C(=O)N[C@@H](CC(C)C)C(=O)N[C@@H](C)C(=O)N[C@@H](CCC(N)=O)C(=O)NCC(=O)N1CCC[C@H]1C(=O)N[C@@H](CO)C(=O)N[C@@H](CO)C(=O)NCC(=O)N[C@@H](C)C(=O)N1CCC[C@H]1C(=O)N1CCC[C@H]1C(=O)N1CCC[C@H]1C(=O)N[C@@H](CO)C(N)=O)C(C)C [Compound 12]	9	0.009	> 3	77	882	8	1010	98
CC[C@H](C)[C@H](NC(=O)[C@H](CO)NC(=O)[C@H](Cc1ccc(O)cc1)NC(=O)[C@H](CC(=O)O)NC(=O)[C@H](CO)NC(=O)[C@@H](NC(=O)[C@H](Cc1ccccc1)NC(=O)[C@@H](NC(=O)CNC(=O)[C@H](CCC(=O)O)NC(=O)C(C)(C)NC(=O)[C@@H](N)Cc1ccc(O)cc1)[C@@H](C)O)[C@@H](C)CC)C(=O)N[C@@H](CCC(=O)O)C(=O)N[C@@H](CC(C)C)C(=O)N[C@@H](CC(=O)O)C(=O)N[C@@H](CCCCN)C(=O)N[C@@H](CCCCNC(=O)COCCOCCNC(=O)COCCOCCNC(=O)CC[C@H](NC(=O)CCCCCCCCCCCCCCCCCCC(=O)O)C(=O)O)C(=O)N[C@@H](C)C(=O)N[C@@H](C)C(=O)N[C@@H](CCC(N)=O)C(=O)N[C@@H](CC(=O)O)C(=O)N[C@@H](Cc1ccccc1)C(=O)N[C@H](C(=O)N[C@@H](CC(N)=O)C(=O)N[C@@H](Cc1c[nH]c2ccccc12)C(=O)N[C@@H](CC(C)C)C(=O)N[C@@H](CC(C)C)C(=O)N[C@@H](C)C(=O)N[C@@H](CCC(N)=O)C(=O)NCC(=O)N1CCC[C@H]1C(=O)N[C@@H](CO)C(=O)N[C@@H](CO)C(=O)NCC(=O)N[C@@H](C)C(=O)N1CCC[C@H]1C(=O)N1CCC[C@H]1C(=O)N1CCC[C@H]1C(=O)N[C@@H](CO)C(N)=O)C(C)C [Compound 10] (H-Y[Aib]EGTFISDYSIELDKK([AEEA-AEEA-γGlu-C20 diacid])AAQDFVNWLLAQGPSSGAPPPS-NH2)	8	0.007	> 10	100	1010	4	1270	77
